In patent US12227492B1, “Pyrimidine nucleosides as anticancer agents against pancreatic cancer” (Florida A&M University, priority 2021, dated 2025):
Where a name gives a salt, the structure may show the parent alone. Read-outs that look alike come from different tables or passages of the source.

Assays:
[1] = system: MiaPaCa-2 pancreatic cancer cell line; assay: In vitro cell viability studies (resazurin/Alamar Blue); assay type: cell-based; details: for IC50: Homo sapiens, MIA PaCa-2, MiaPaCa-2, 48 hr incubation
Experimental: Prior to viability studies, Dulbecco's modified Eagle medium (DMEM) with high glucose and L-glutamine was supplemented with 10% fetal bovine serum (FBS) and 1% penicillin-streptomycin (PenStrep). Briefly, MiaPaCa-2 cells were seeded at a density of 1×10^3 per well in 96-well plates in triplicates for each drug concentration level and incubated at 5% CO2 and temperature of 37° C. At 70-75% confluence, MiaPaCa-2 cells were treated with compounds XYZ-I-71, XYZ-I-73, 5-Fluorouracil (5-FU), Gemcitabine (Gem) and Irinotecan. Varying concentrations of 4NSG was prepared from its stock solution with growth medium. For 5-Fluorouracil (5-FU), Gemcitabine Hydrochloride (GemHCl) and Irinotecan, a stock solution was prepared with phosphate-buffered saline (PBS) and serially diluted with growth medium to prepare varied concentrations: thus 3, 6, 12, 25, and 100 μM. Cells was treated with 100 μL of each drug concentration in triplicates and incubated for 48 hr. At termination, 20 μL of 0.05% resazurin sodium salt (Alamar Blue®) was added and incubated at optimum conditions (5% CO2, 37° C.) for 4 hr. Fluorimetric analysis was determined at excitation wavelength of 560/580 nm and emission wavelength of 590/610 nm and the percent viable cells per concentration was calculated. For statistical analysis, results are presented as mean±SD. Data were analyzed for significance by one-way ANOVA, using GraphPad Prism 5 Software and IC50 values were determined.

Log P = assay type: physicochemical
MiaPaCa-2 cells = assay: In vitro cell migration (wound) assay; assay type: cell-based; details: 2, 5 and 10 μM, after 48 h, compared with 5-FU, GemHCl
Experimental: A uniform scratch was made in 90% confluent monolayer culture of MiaPaCa-2 cells and the extent of closure was monitored under microscope and photographed. […] Migrated cells within the scratch were quantified and the distance of migration measured using NIH ImageJ software. […] Over the same incubation time, the cells in the control group (48 h) migrated farther achieving a complete or near closure of the wounds. The results are expressed as the means (±SEM, N=4) relative to the control.
Cell migration assay was conducted to determine the effect of on 5-FU, GemHCl, XYZ-I-71 and XYZ-I-73 MiaPaCa-2 cell motility. Ibidi cell culture inserts were used to generate two confluent monolayers of cells separated by a “wound” for this assay. The cells were seeded in 24-well plates at a cell density of 2.5×10^5, for 24 h at 37° C. At 75% confluency, cells formed adherent monolayers on either side of the tissue culture insert. Prior to treatment, the cells were serum-starved by replacing complete media with base media (DMEM) and then further incubated for 24 hours. After serum starving, the insert was gently removed to generate a gap or “wound’ between the two confluent layers of cells. The monolayers were washed with experimental media and afterwards cells were exposed to varying concentrations of 5-FU, GemHCl, XYZ-I-71 and XYZ-I-73 (1, 2, 5 and 10 μM). […]

[2] = mean ± SD, read-out: IC50 (μM) against MiaPaCa-2 cell line as determined by cell viability studies
[3] = read-out: IC50 values, cytotoxic activity against MiaPaCa-2 cancer line

SMILES | IC50 [1, 2] | logP (Log P) | number of migrated cells towards the wound (MiaPaCa-2 cells) | IC50 [1, 3] | efficacy against MiaPaCa-2 cancer line compared with 5-FU (IC50 data) ([1]; MiaPaCa-2) | cytotoxic activity against MiaPaCa-2, XYZ-I-73 versus XYZ-I-71 ([1]; MiaPaCa-2, FIG. 7)
O=c1[nH]cc(F)c(=O)[nH]1 [Compound 5-FU, 5-Fluorouracil, reference compound] | 51.1 ± 1.1 µM | – | – | – | – | –
Nc1ccn([C@@H]2O[C@H](CO)[C@@H](O)C2(F)F)c(=O)n1 [GemHCl, Gemcitabine Hydrochloride, reference compound] | 25.3 ± 1.3 µM | – | – | – | – | –
CCc1c2c(nc3ccc(OC(=O)N4CCC(N5CCCCC5)CC4)cc13)-c1cc3c(c(=O)n1C2)COC(=O)[C@]3(O)CC [Irinotecan, reference compound] | 28 ± 1.5 µM | – | – | – | – | –
CCCCCCCC(=O)Nc1nc(=O)n(C2CCCO2)cc1F (centres unmarked) [XYZ-I-71, N-(5-fluoro-2-oxo-1-(tetrahydrofuran-2-yl)-1,2-dihydropyrimidin-4-yl)octanamide] | 13.8 ± 1.7 µM | 2.27 | significantly inhibited | 13.8 ± 1.1 µM | greater efficacy | –
CCCCCCCCCCCC(=O)Nc1nc(=O)n(C2CCCO2)cc1F (centres unmarked) [XYZ-I-73, N-(5-fluoro-2-oxo-1-(tetrahydrofuran-2-yl)-1,2-dihydropyrimidin-4-yl)dodecanamide] | 6.81 ± 2.1 µM | 3.94 | significantly inhibited | 6.81 ± 1.1 µM | greater efficacy | significant higher cytotoxic activity
